Results as given in patent US20220411380A1, “ACID ADDITION SALT OF RORy REGULATOR” (JIANGSU HENGRUI MEDICINE CO., LTD., priority 2019, published 2022).

Assays:
Type in all cases: physicochemical
[1] = DVS (dynamic vapor sorption) characterization
Method: DVS refers to dynamic vapor sorption: The measurement was conducted with a Surface Measurement Systems advantage 2 at 25° C., starting from 50% humidity in humidity range of 0%-95% with a step size of 10%. The judging criterion was that the mass change of each gradient dM/dT is less than 0.002 and TMAX is less than 360 min in two circles.

[2] = Influencing factor study of crystalline form α of hydrochloride and crystalline form I of hydrobromide
Method: Sample of the crystalline form α of the hydrochloride and the crystalline form I of the hydrobromide of the compound of formula II were let stand open to examine the stability of the samples in conditions of illumination (4500 Lux), high temperature (40° C. and 60° C.) and high humidity (RH 75% and RH 92.5%) in a period of 30 days.

[3] = Long-term/accelerated stability study of crystalline form α of hydrochloride and crystalline form I of hydrobromide
Method: The crystalline form α of the hydrochloride of the compound of formula II was let stand in conditions of 25° C./60% RH and 40° C./75% RH to examine its stability.
The crystalline form I of the hydrobromide of the compound of formula II was let stand in conditions of 25° C./60% RH and 40° C./75% RH to examine its stability.

- DVS weight change ([1]; 25° C., 20.0% RH to 80.0% RH): 0.549%
- Hygroscopicity ([1]; DVS, 25° C., 20.0% RH to 80.0% RH): slightly hygroscopic
- Vapor sorption ([1]; accelerated test condition, 70% humidity): about 0.574%
- Vapor sorption ([1]; extreme condition, 90% humidity): about 1.040%
- Vapor sorption ([1]; normal storage condition, 60% humidity/25° C.): about 0.463%
- Chiral purity (%) ([2]; 40° C., 7 days): 99.131%
- Color and appearance ([2]; 40° C., 7 days): White solid
- Crystalline form ([2]; 40° C., 7 days): Not changed
- Main peak purity (%) ([2]; 40° C., 7 days): 96.915%
- Chiral purity (%) ([2]; 40° C., 14 days): 99.115%
- Color and appearance ([2]; 40° C., 14 days): White solid
- Crystalline form ([2]; 40° C., 14 days): Not changed
- Main peak purity (%) ([2]; 40° C., 14 days): 96.921%
- Chiral purity (%) ([2]; 40° C., 30 days): 99.207%
- Chloride ion content (%) ([2]; 40° C., 30 days): 5.75%
- Color and appearance ([2]; 40° C., 30 days): White solid
- Crystalline form ([2]; 40° C., 30 days): Not changed
- Main peak purity (%) ([2]; 40° C., 30 days): 96.824%
- Chiral purity (%) ([2]; 60° C., 7 days): 99.136%
- Color and appearance ([2]; 60° C., 7 days): White solid
- Crystalline form ([2]; 60° C., 7 days): Not changed
- Main peak purity (%) ([2]; 60° C., 7 days): 96.884%
- Chiral purity (%) ([2]; 60° C., 14 days): 99.106%
- Color and appearance ([2]; 60° C., 14 days): White solid
- Crystalline form ([2]; 60° C., 14 days): Not changed
- Main peak purity (%) ([2]; 60° C., 14 days): 96.907%
- Chiral purity (%) ([2]; 60° C., 30 days): 99.232%
- Chloride ion content (%) ([2]; 60° C., 30 days): 5.65%
- Color and appearance ([2]; 60° C., 30 days): White solid
- Crystalline form ([2]; 60° C., 30 days): Not changed
- Main peak purity (%) ([2]; 60° C., 30 days): 96.814%
- Chiral purity (%) ([2]; 75% RH, 7 days): 99.138%
- Color and appearance ([2]; 75% RH, 7 days): White solid
- Crystalline form ([2]; 75% RH, 7 days): Not changed
- Main peak purity (%) ([2]; 75% RH, 7 days): 96.916%
- Chiral purity (%) ([2]; 75% RH, 14 days): 99.130%
- Color and appearance ([2]; 75% RH, 14 days): White solid
- Crystalline form ([2]; 75% RH, 14 days): Not changed
- Main peak purity (%) ([2]; 75% RH, 14 days): 96.908%
- Chiral purity (%) ([2]; 75% RH, 30 days): 99.220%
- Chloride ion content (%) ([2]; 75% RH, 30 days): 5.68%
- Color and appearance ([2]; 75% RH, 30 days): White solid
- Crystalline form ([2]; 75% RH, 30 days): Not changed
- Main peak purity (%) ([2]; 75% RH, 30 days): 96.903%
- Chiral purity (%) ([2]; 92.5% RH, 7 days): 99.132%
- Color and appearance ([2]; 92.5% RH, 7 days): White solid
- Crystalline form ([2]; 92.5% RH, 7 days): Not changed
- Main peak purity (%) ([2]; 92.5% RH, 7 days): 96.912%
- Chiral purity (%) ([2]; 92.5% RH, 14 days): 99.111%
- Color and appearance ([2]; 92.5% RH, 14 days): White solid
- Crystalline form ([2]; 92.5% RH, 14 days): Not changed
- Main peak purity (%) ([2]; 92.5% RH, 14 days): 96.908%
- Chiral purity (%) ([2]; 92.5% RH, 30 days): 99.211%
- Chloride ion content (%) ([2]; 92.5% RH, 30 days): 5.67%
- Color and appearance ([2]; 92.5% RH, 30 days): White solid
- Crystalline form ([2]; 92.5% RH, 30 days): Not changed
- Main peak purity (%) ([2]; 92.5% RH, 30 days): 96.880%
- Chiral purity (%) ([2]; 4500 Lux, 7 days): 99.137%
- Color and appearance ([2]; 4500 Lux, 7 days): White solid
- Crystalline form ([2]; 4500 Lux, 7 days): Not changed
- Main peak purity (%) ([2]; 4500 Lux, 7 days): 96.911%
- Chiral purity (%) ([2]; 4500 Lux, 14 days): 99.139%
- Color and appearance ([2]; 4500 Lux, 14 days): White solid
- Crystalline form ([2]; 4500 Lux, 14 days): Not changed
- Main peak purity (%) ([2]; 4500 Lux, 14 days): 96.911%
- Chiral purity (%) ([2]; 4500 Lux, 30 days): 99.216%
- Chloride ion content (%) ([2]; 4500 Lux, 30 days): 5.71%
- Color and appearance ([2]; 4500 Lux, 30 days): White solid
- Crystalline form ([2]; 4500 Lux, 30 days): Not changed
- Main peak purity (%) ([2]; 4500 Lux, 30 days): 96.810%
- Chiral purity (%) ([2]; Initial, 0 days): 99.14%
- Chloride ion content (%) ([2]; Initial, 0 days): 5.75%
- Color and appearance ([2]; Initial, 0 days): White solid
- Crystalline form ([2]; Initial, 0 days): Crystalline
- Main peak purity (%) ([2]; Initial, 0 days): 96.925%
- Stability (conclusion of influencing factor study) ([2]; illumination, 40° C. and 60° C., high humidities of 75% and 92.5%): good physical and chemical stabilities
- Chiral purity (%) ([3]; 25° C., 60% RH, Day 7): 99.131%
- Color and appearance ([3]; 25° C., 60% RH, Day 7): White solid
- Crystalline form ([3]; 25° C., 60% RH, Day 7): Not changed
- Main peak purity (%) ([3]; 25° C., 60% RH, Day 7): 96.915%
- Chiral purity (%) ([3]; 25° C., 60% RH, Day 14): 99.111%
- Color and appearance ([3]; 25° C., 60% RH, Day 14): White solid
- Crystalline form ([3]; 25° C., 60% RH, Day 14): Not changed
- Main peak purity (%) ([3]; 25° C., 60% RH, Day 14): 96.831%
- Chiral purity (%) ([3]; 25° C., 60% RH, Month 1): 99.225%
- Chloride ion content (%) ([3]; 25° C., 60% RH, Month 1): 5.75%
- Color and appearance ([3]; 25° C., 60% RH, Month 1): White solid
- Crystalline form ([3]; 25° C., 60% RH, Month 1): Not changed
- Main peak purity (%) ([3]; 25° C., 60% RH, Month 1): 96.906%
- Chiral purity (%) ([3]; 25° C., 60% RH, Month 2): 99.332%
- Chloride ion content (%) ([3]; 25° C., 60% RH, Month 2): 5.74%
- Color and appearance ([3]; 25° C., 60% RH, Month 2): White solid
- Crystalline form ([3]; 25° C., 60% RH, Month 2): Not changed
- Main peak purity (%) ([3]; 25° C., 60% RH, Month 2): 96.883%
- Chiral purity (%) ([3]; 25° C., 60% RH, Month 3): 99.239%
- Color and appearance ([3]; 25° C., 60% RH, Month 3): White solid
- Crystalline form ([3]; 25° C., 60% RH, Month 3): Not changed
- Main peak purity (%) ([3]; 25° C., 60% RH, Month 3): 96.749%
- Chiral purity (%) ([3]; 25° C., 60% RH, Month 6): 99.187%
- Chloride ion content (%) ([3]; 25° C., 60% RH, Month 6): 5.85%
- Color and appearance ([3]; 25° C., 60% RH, Month 6): White solid
- Crystalline form ([3]; 25° C., 60% RH, Month 6): Not changed
- Main peak purity (%) ([3]; 25° C., 60% RH, Month 6): 96.170%
- Chiral purity (%) ([3]; 40° C., 75% RH, Day 7): 99.137%
- Color and appearance ([3]; 40° C., 75% RH, Day 7): White solid
- Crystalline form ([3]; 40° C., 75% RH, Day 7): Not changed
- Main peak purity (%) ([3]; 40° C., 75% RH, Day 7): 96.906%
- Chiral purity (%) ([3]; 40° C., 75% RH, Day 14): 99.104%
- Color and appearance ([3]; 40° C., 75% RH, Day 14): White solid
- Crystalline form ([3]; 40° C., 75% RH, Day 14): Not changed
- Main peak purity (%) ([3]; 40° C., 75% RH, Day 14): 96.902%
- Chiral purity (%) ([3]; 40° C., 75% RH, Month 1): 99.206%
- Chloride ion content (%) ([3]; 40° C., 75% RH, Month 1): 5.44%
- Color and appearance ([3]; 40° C., 75% RH, Month 1): White solid
- Crystalline form ([3]; 40° C., 75% RH, Month 1): Not changed
- Main peak purity (%) ([3]; 40° C., 75% RH, Month 1): 96.846%
- Chiral purity (%) ([3]; 40° C., 75% RH, Month 2): 99.292%
- Chloride ion content (%) ([3]; 40° C., 75% RH, Month 2): 5.86%
- Color and appearance ([3]; 40° C., 75% RH, Month 2): White solid
- Crystalline form ([3]; 40° C., 75% RH, Month 2): Not changed
- Main peak purity (%) ([3]; 40° C., 75% RH, Month 2): 96.780%
- Chiral purity (%) ([3]; 40° C., 75% RH, Month 3): 99.149%
- Color and appearance ([3]; 40° C., 75% RH, Month 3): White solid
- Crystalline form ([3]; 40° C., 75% RH, Month 3): Not changed
- Main peak purity (%) ([3]; 40° C., 75% RH, Month 3): 96.664%
- Chiral purity (%) ([3]; 40° C., 75% RH, Month 6): 98.972%
- Chloride ion content (%) ([3]; 40° C., 75% RH, Month 6): 5.98%
- Color and appearance ([3]; 40° C., 75% RH, Month 6): White solid
- Crystalline form ([3]; 40° C., 75% RH, Month 6): Not changed
- Main peak purity (%) ([3]; 40° C., 75% RH, Month 6): 95.990%
- Chiral purity (%) ([3]; Initial, 0): 99.14%
- Chloride ion content (%) ([3]; Initial, 0): 5.75%
- Color and appearance ([3]; Initial, 0): White solid
- Crystalline form ([3]; Initial, 0): Crystalline
- Main peak purity (%) ([3]; Initial, 0): 96.925%
- Stability (conclusion of long-term/accelerated study) ([3]; long term and acceleration, 6 months): good physical and chemical stability
Compound: Cl.NC(=O)C[C@H](c1ccc(S(=O)(=O)CC2CC2)cc1)c1nc2cc(-c3ccccc3OC(F)F)c(Cl)cc2[nH]1 [Crystalline form α of hydrochloride of compound of formula I]
- Crystalline form before and after DVS (XRPD comparison) ([1]; 0-95% humidity change): crystalline form did not change during DVS
